We go through one substance from patent US9963488B2, “Variants of the lantibiotic MU1140 and other lantibiotics with improved pharmacological properties and structural features” (priority 2012, dated 2018).

In data set [1] the test system is vancomycin-resistant Enterococcus faecium (VREF). The settings on record: cited from earlier work.
For data set [2] the following is noted: murine models, cited from earlier work.
Data set [3] relates to Streptococcus pneumonia FA1. Kind of data set: Minimum inhibitory concentration. It is filed as cell-based. The settings on record: THyex medium; 24 hour incubation; peptide about 90% purity. As for the experimental part: (§1) Wild-type mutacin 1140, mutacin 1140 with a F1I mutation, mutacin 1140 with a W4A mutation, and mutacin 1140 with a R13D mutation was purified to about 90% purity (measured via HPLC). The minimum inhibitory concentration (MIC) of MU1140 and variants of MU1140 was determined against several bacteria. The MIC is the lowest concentration of MU1140 that will inhibit the visible growth of a microorganism after 24 hour incubation. A lower MIC is an indication of greater inhibitory activity. Preparation of the antimicrobial agent and bacterial inoculum for minimum inhibitory concentrations (MICs) was performed by following the method described in Clinical Laboratory Standard Institute (CLSI) M07-8A with some minor modifications. Streptococcus mutans UA159 was tested overnight in a shaking incubator to maintain uniform dispersion of the bacteria. Clostridium difficile UK1 was tested in an anaerobic chamber at 37° C. The medium used was THyex.

The test system of data set [4] is Streptococcus mutans UA159. The data set can be described thus: Minimum inhibitory concentration. It is filed as cell-based. The settings on record: THyex medium; overnight in shaking incubator; peptide about 90% purity. As for the experimental part: as §1
Data set [5] deals with Micrococcus luteus ATCC10240. The data set can be described thus: Minimum inhibitory concentration. It is filed as cell-based. The note with it: THyex medium; 24 hour incubation; peptide about 90% purity. As for the experimental part: as §1
In data set [6] the test system is Clostridium difficile UK1. Kind of data set: Minimum inhibitory concentration. It is filed as cell-based. The settings on record: THyex medium; anaerobic chamber at 37° C.; peptide about 90% purity. The procedure:
as §1

The subject of data set [7] is Staphylococcus aureus FA1. The data set can be described thus: Minimum inhibitory concentration. It is filed as cell-based. The note with it: THyex medium; 24 hour incubation; peptide about 90% purity. As for the experimental part: as §1
Data set [8] has as its system Gram-negative bacteria or yeast. The settings on record: cited from earlier work.
Data set [9] deals with S. pneumonia. The note with it: cited from earlier work.
Data set [10] concerns all Gram positive bacteria against which it was tested. The settings on record: cited from earlier work.
For data set [11] the following is noted: cited from earlier work.
In data set [12] the test system is multi-drug resistant strains of S. aureus. The settings on record: cited from earlier work.
In data set [13] the test system is S. aureus or Streptococcus pneumoniae. The note with it: repeated subculture in medium with sub-lethal concentrations; cited from earlier work.
Data set [14] deals with Staphylococcus aureus. The settings on record: pilot study; 60 times the LD50 of Staphylococcus aureus administered; cited from earlier work.

Consider “Mu1140 Wild-type: wild-type lantibiotic MU1140 (SEQ ID NO:17) produced by Streptococcus mutans strain JH1140 (FKAWXLAXPGAARXGAFNAYA; not fully specified; lantibiotic post-translational modifications; DISULFID (3)..(7); (5)..(5) X is Dha amino acid; DISULFID (8)..(11); MOD_RES (8)..(8) Abu; (14)..(14) X is Dhb amino acid; DISULFID (16)..(21); (19)..(21) lanthionine bridge)”, for which the “mode of antibacterial action” value in data set [1] was “bacteriostatic”; in data set [9], “bactericidal”; in data set [12] it was “bactericidal”. Further, the toxicity entry in [2] (intravenous route) is on record as “low toxicity”. For the same substance, in data set [2], the distribution result is “distributed into all body compartments”. For the same substance, the “MIC Streptococcus pneumonia FA1” value in [3] worked out at 0.5. In addition, the “MIC Streptococcus mutans UA159” value in data set [4] is 2. Besides, the “MIC Micrococcus luteus ATCC10240” value in [5] worked out at 0.0625. In addition, in data set [6], the “MIC Clostridium difficile UK1” value amounted to 16. The “MIC Staphylococcus aureus FA1” value in [7] is 16. Besides, the activity result in data set [8] is reported as “no activity”. The “minimum inhibitory concentration (MIC)” value in [10] was “submicromolar”. For the same substance, the cytotoxicity in vitro result in [11] is recorded as “low cytotoxicity”. Moreover, the “development of significant resistance” value in [13] is listed as “not observed”. In addition, the efficacy result in [14] is listed as “efficacy was achieved”.
